The record followed here is PubChem BioAssay (NCI).

Holding throughout (assay): DTP human tumour cell line panel, 48 h
In test [1] the test system is HOP-92 NSCLC.
Test [2] concerns K-562 leukemia.
The test system of test [3] is COLO 205 colon.
The subject of test [4] is SNB-75 CNS.
Test [5] concerns HCT-116 colon.
Test [6] deals with HCT-15 colon.
Test [7] deals with TK-10 renal.
Test [8] concerns HCC-2998 colon.
Test [9] concerns UACC-257 melanoma.
In test [10] the test system is OVCAR-8 ovarian.

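Values below derive from 48-hour exposures of cells grown in 96-well plates, with endpoints linearly interpolated between the two concentrations bracketing the appropriate inhibition level. GI50 = concentration required for 50% inhibition of growth. TGI denotes the concentration required for complete inhibition of growth.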

As for `COC(=O)c1cc2c(cc1Cl)SC(N(N(C)C)S(=O)(=O)c1ccc(Br)s1)=NS2(=O)=O`, the GI50 in test [1] is 18.5 µM; in test [2] it was 16.1 µM; in test [3] it was 21.2 µM; in test [4] it was 30.5 µM; in test [5], 26.6 µM; in [6] it was 18 µM. Besides, the GI50 in test [7] was 29.7 µM; in test [8], 19.7 µM. In addition, the TGI in test [1] came out at 36.7 µM; in test [2], 33.6 µM; in test [3] it was 50.9 µM; in [4] it was 88.7 µM; in test [5], 73.6 µM; in test [6], 33.6 µM. For the same compound, the results for the TGI in test [7] and in test [8] were 82.1 µM and 40.6 µM, respectively.
On to `CC(C)(C#N)c1cc(Cn2cncn2)cc(C(C)(C)C#N)c1`, for which the GI50 in [9] is over 10000 µM; in test [10] it was over 10000 µM; in test [1], 297 µM; in test [3] it was 2070 µM; in test [4], over 10000 µM; in test [6] it was over 10000 µM. Further, the values for the GI50 in [7] and in test [8] were 564 µM and over 10000 µM, respectively. Also, the TGI was over 10000 µM in test [9]; over 10000 µM in [10]; 2980 µM in test [1]; over 10000 µM in test [3]; over 10000 µM in [4]; over 10000 µM in test [6]. In addition, the TGI in test [7] and in test [8] was over 10000 µM in each case.
Turning to `C=C1C(=O)O[C@H]2[C@H]1CC/C(CNC(=O)c1cc3cc(OC)ccc3[nH]1)=C\CC[C@@]1(C)O[C@@H]21`, the GI50 in test [10] was 2.06 µM; in test [1], 1.56 µM; in [2], 2.56 µM; in test [3], 1.21 µM; in test [4], 1.9 µM; in test [5], 0.645 µM. Further, the GI50 in test [6] is 0.825 µM; in test [7], 1.88 µM; in test [8] it was 1.66 µM. Also, the TGI in test [10] amounted to 7.78 µM; in [1], 3.35 µM; in [2] it was 7.99 µM; in test [3] it was 3.04 µM; in test [4] it was 13.1 µM; in test [5], 2.07 µM. Also, the concentration for total growth inhibition (TGI) in [6] was 2.23 µM; in [7], 4.61 µM; in [8] it was 3.26 µM.
Turning to `Cc1cc(C)c([O-])c(CN(C)CCN(C)Cc2cc(C)cc(C)c2[O-])c1.O=C([O-])c1cccc(C(=O)[O-])n1.[Ti+4]`, the GI50 in [10] was 2.8 µM; in test [1] it was 2.51 µM; in test [2] it was 2.67 µM; in [3] it was 2.4 µM; in test [4], 1.67 µM; in [5], 0.383 µM. Also, the values for the GI50 in test [6], in test [7] and in test [8] were 3.5 µM, 1.71 µM and 2.98 µM, respectively. The TGI is over 100 µM in test [10]; 6.47 µM in [1]; over 100 µM in test [2]; 5.01 µM in test [3]; 5.65 µM in [4]; 22.3 µM in test [5]. The TGI in test [6] was over 100 µM; in [7] it was 5.47 µM; in test [8] it was over 100 µM.
In the case of `CC1(C)C2CCC3=C(CCC4(C)C5C[C@](C)(C(=O)O)CC[C@]5(C)CC[C@]34C)[C@@]2(C)CC[C@@H]1O` (stereo partly drawn), the TGI is 38.7 µM in test [1]; 49 µM in test [2]; over 100 µM in [3]; 34.4 µM in test [4]; 30.2 µM in test [5]; 37.7 µM in [6]. The TGI is 32.2 µM in test [7] and over 100 µM in test [8].
For the compound `Cc1[nH]c2ccccc2c1C1Cc2ccccc2N1C(=O)/C=C\C(=O)O` (stereo not drawn), the TGI is 37.8 µM in [9]; 76.6 µM in test [1]; over 100 µM in test [2]; over 100 µM in test [3]; over 100 µM in test [4]; over 100 µM in [5]. The TGI in test [6], in test [7] and in test [8] was over 100 µM each time.
`Nc1c(C(=O)c2ccc(Cl)cc2)sc(Nc2ccccc2)c1-c1nc2ccccc2s1`: the GI50 in test [9] is over 100 µM; in test [10], 2.68 µM; in [1] it was 0.777 µM; in [2], 3.1 µM; in test [4], 1.89 µM; in [5], 5.04 µM. Besides, the results for the GI50 in [6], in test [7] and in test [8] were 2.44 µM, 2.13 µM and over 100 µM, respectively. Moreover, the TGI is over 100 µM in test [9]; over 100 µM in test [10]; 4.7 µM in test [1]; over 100 µM in test [2]; 9.5 µM in test [4]; over 100 µM in test [5]. Also, the results for the TGI in test [6], in test [7] and in [8] were over 100 µM, over 21.4 µM and over 100 µM, respectively.
With `COc1cc(C(=O)/C(C)=C/c2c[nH]c3ccccc23)cc(OC)c1OC`, the GI50 in test [10] is 0.00358 µM; in [1], 0.074 µM; in test [2], 0.00346 µM; in test [3], 0.00354 µM; in test [4], 0.00334 µM; in test [5], 0.00359 µM. Also, the GI50 in test [6] is 0.0034 µM; in [8], 0.0043 µM. In addition, the TGI in [10] is 82.4 µM; in [1], 2.33 µM; in test [2], over 100 µM; in [3], 0.0159 µM; in test [4], 16.1 µM; in [5], over 100 µM. The TGI in test [6] was over 100 µM; in test [7], 12.4 µM; in test [8], over 100 µM.
Take `NNC(=O)/C(=C/c1ccc(Cl)c(Cl)c1)NC(=O)c1ccccc1`: the TGI in [9], in [10], in test [1], in test [3], in [4] and in test [5] was over 100 µM in each case. The TGI in [7] and in test [8] was over 100 µM in each case.
